Reference: article PMC6644700 (ACS chemical biology, 2019)

Target: T1, Nicotinamide N-methyltransferase (NNMT) (Homo sapiens, UniProt P40261, C165A)
T1 sequence (P40261 1-264 C165A): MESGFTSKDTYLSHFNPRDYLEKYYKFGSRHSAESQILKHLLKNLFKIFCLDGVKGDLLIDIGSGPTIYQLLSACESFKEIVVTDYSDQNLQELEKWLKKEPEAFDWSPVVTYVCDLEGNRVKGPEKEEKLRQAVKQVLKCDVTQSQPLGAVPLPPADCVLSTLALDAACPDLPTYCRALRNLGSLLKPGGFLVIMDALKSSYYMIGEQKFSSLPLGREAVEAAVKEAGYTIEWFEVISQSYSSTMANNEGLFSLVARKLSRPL
Assay: suicide inactivation of purified mutant with SAM
Type: biochemical

Row | Structure (SMILES) | suicide inactivation of purified mutant with SAM
1 | Clc1ccncc1 [compound 2, 4-chloropyridine] | By contrast, the C165A mutant remained sensitive.
2 | NC(=O)c1cnccc1Cl [compound 3, 4-chloronicotinamide] | By contrast, the C165A mutant remained sensitive.
